Data set [1] addresses T1, neuropeptide Y2 (Homo sapiens, UniProt P49146).
T1 sequence (P49146 1-381): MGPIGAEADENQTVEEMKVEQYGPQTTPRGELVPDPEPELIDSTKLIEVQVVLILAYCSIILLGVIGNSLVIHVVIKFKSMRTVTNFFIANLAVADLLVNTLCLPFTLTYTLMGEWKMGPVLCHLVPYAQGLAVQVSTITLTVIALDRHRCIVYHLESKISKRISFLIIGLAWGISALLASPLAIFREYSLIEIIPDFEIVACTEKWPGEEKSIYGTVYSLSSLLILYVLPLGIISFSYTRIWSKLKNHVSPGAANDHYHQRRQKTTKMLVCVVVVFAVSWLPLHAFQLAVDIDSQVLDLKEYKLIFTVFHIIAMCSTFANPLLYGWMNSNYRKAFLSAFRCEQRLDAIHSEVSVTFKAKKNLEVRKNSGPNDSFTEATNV
Nature of the data set: Selectivity versus neuropeptide Y2. Format: cell-based.

In data set [2] the target is T2, rat MCH1R (Rattus norvegicus, UniProt P97639). Nature of the data set: [125I] MCH binding to membrane fractions of MCH1R expressing HEK-293T. On the procedure:
Cell pellet was homogenized with ice-cold 50 mM Tris-HCl buffer (pH 7.4) containing 5 mM EDTA, and ultra-centrifuged twice at 48,000×g for 20 min at 4° C. The pellets were then suspended in 50 mM Tris-HCl (pH 7.4) buffer containing 5 mM EDTA and used as membrane fractions. […] The radioactivity retained in the filters was determined with a γ-counter. IC50 values calculated as described above are expressed as the mean +S.E.M. for three independent determinations. DNA was mixed with LipofectAMINE transfection reagents (Life Technologies, MD), and the mixture was diluted with Opti-MEM and added to 60-70% confluent HEK 293T cells plated on 100-mm dishes. The transfected cells were cultured in DMEM containing 10% FBS.

Data set [3] addresses human MCH2R (Homo sapiens, UniProt Q969V1). Nature of the data set: Selectivity versus human MCH2R. The class given is cell-based.
Data set [4] has as its system rats. Nature of the data set: Spontaneous food and water intake after 1 hour deprivation, Example VIII. Format: in vivo, rat. The note with it: 10 nM i.c.v., start of dark cycle; for 30 minute food intake following 1 hour food/water deprivation, TPI treated versus control: b181 words it as control greater than treated, p less than 0.005. The method, then:
In this example, adult male Sprague-Dawley rats, weighing 350-400 g were randomly divided into two (2) groups of eight (8) rats each (Groups I and II). The animals were housed individually in a room having an ambient temperature of 20 degrees C., a light cycle from 07:00 to 19:00 each day and a dark cycle from 19:00 to 07:00.
In a first experiment, food (rat chow) and water were made available ad libitum except during a 1 hour food/water deprivation period from 18:00 to 19:00. At the end of the 1 hour food/water deprivation period the animals in Group I (n=8) received 0.9% saline by i.c.v. injection and the animals in Group II (n−8) received 10 nM TPI 1361-17 (Formula IV) by i.c.v. injection. Immediately after dosing, and upon commencement of the darkness cycle, food (rat chow) and water were again made available ad libitum and food and water intake were measured for the next thirty (30) minutes. Data were compared using the non-parametric t-Test with the 0.05 level of probability and below being defined as significant.

Data set [5] deals with T2, rat MCH1R. Nature of the data set: MCH-induced Ca2+ mobilization (FLIPR) in HEK 293T cells expressing rat MCH1R. Format: cell-based.
Data set [6] concerns the target kappa opioid receptor (dynorphin) (Homo sapiens, UniProt P41145). Nature of the data set: Selectivity versus kappa opioid receptor. Format: cell-based.
The target in data set [7] is T3, prolactin releasing peptide (PrRP) receptor (Homo sapiens, UniProt P49683).
T3 sequence (P49683 1-370): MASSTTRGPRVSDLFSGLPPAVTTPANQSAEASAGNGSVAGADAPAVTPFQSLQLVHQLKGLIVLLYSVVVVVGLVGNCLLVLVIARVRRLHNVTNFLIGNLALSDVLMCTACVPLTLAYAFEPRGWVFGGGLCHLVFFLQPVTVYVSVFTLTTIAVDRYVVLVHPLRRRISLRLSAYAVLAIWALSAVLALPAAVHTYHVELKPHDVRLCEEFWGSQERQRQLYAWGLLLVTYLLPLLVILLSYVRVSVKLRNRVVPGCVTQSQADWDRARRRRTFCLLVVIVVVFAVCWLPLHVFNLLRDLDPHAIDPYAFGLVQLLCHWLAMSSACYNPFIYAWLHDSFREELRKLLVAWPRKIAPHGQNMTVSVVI
Nature of the data set: Selectivity versus PrRP receptor. The class given is cell-based.

The subject of data set [8] is rats. Nature of the data set: Motor activity in rats, Example VI. The class given is in vivo, rat. As to conditions: 10 nM i.c.v. The method, then: Sprague Dawley rats were randomly divided into two groups (Group I and Group II) of eight (8) rats each. The rats in Group I (n=8) received 0.9% saline by i.c.v. injection. The rats in Group II (n−8) received 10 nM TPI 1361-17 (Formula IV) by i.c.v. injection. […] Once each day thereafter, for a total of ______ days, the rats were taken into a test room, allowed to acclimatize for ______ minutes, then placed in four identical chambers (43 cm×43 cm×30.5 cm) that were connected to a common interface and computer (MED Associates, Inc., St. Albans, Vt.). Horizontal movement of the rats was monitored by 16 photobeams per side evenly spaced along each wall of two adjacent sides of each test chamber.

Data set [9] addresses T4, orexin 1R (Homo sapiens, UniProt O43613).
T4 sequence (O43613 1-425): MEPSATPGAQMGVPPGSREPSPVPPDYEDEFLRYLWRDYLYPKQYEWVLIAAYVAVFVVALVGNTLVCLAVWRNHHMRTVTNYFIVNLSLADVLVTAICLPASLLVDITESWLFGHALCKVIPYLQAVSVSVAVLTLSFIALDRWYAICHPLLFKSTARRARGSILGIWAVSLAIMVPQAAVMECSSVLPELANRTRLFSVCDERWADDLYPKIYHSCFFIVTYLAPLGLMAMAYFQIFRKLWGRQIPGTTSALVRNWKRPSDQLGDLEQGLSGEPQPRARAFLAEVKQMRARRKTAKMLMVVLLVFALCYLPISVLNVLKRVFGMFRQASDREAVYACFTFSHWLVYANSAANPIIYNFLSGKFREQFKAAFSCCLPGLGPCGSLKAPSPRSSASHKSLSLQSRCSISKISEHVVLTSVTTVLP
Nature of the data set: Selectivity versus orexin 1R. The class given is cell-based.

The values that follow come from patent US8372848B2, “Melanin-concentrating hormone receptor antagonists and methods of use” (Mixture Sciences, Inc., priority 2004, dated 2013).

Entries after “also recorded” stand apart in the source; their conditions may differ.

Sequence of human MCH2R (Q969V1 whole entry): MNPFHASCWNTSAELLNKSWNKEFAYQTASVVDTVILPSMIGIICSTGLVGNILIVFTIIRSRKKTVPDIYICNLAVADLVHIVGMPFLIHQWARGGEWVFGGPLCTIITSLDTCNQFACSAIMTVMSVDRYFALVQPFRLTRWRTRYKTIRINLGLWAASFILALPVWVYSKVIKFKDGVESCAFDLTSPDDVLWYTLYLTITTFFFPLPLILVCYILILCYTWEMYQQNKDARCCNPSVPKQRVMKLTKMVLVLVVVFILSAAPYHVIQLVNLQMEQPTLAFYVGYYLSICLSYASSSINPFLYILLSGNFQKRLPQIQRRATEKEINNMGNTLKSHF
T2 sequence (P97639 whole entry): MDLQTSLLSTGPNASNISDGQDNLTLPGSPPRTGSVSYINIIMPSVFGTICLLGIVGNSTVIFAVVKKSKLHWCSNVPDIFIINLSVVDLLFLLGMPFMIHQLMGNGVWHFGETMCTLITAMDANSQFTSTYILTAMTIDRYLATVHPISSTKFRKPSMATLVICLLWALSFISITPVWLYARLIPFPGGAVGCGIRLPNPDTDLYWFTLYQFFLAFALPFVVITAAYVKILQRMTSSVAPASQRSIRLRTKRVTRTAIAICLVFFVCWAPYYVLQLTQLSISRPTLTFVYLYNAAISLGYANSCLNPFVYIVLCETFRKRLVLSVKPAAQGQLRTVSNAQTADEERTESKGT
Sequence of kappa opioid receptor (dynorphin) (P41145 whole entry): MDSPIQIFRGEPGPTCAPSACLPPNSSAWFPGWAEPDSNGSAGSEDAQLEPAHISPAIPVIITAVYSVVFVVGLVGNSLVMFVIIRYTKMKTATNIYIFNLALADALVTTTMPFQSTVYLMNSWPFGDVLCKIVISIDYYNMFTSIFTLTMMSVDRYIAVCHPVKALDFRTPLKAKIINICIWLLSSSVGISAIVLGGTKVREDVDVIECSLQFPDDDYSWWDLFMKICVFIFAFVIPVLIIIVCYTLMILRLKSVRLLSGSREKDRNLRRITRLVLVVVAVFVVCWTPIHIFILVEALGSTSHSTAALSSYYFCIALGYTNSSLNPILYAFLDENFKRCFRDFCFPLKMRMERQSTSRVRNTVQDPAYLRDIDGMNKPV

With `C[C@@H](CNCc1ccccc1)N1C[C@H](CCCNC(=N)N)N(CCc2cccc(F)c2)C1=S` [TPI 1361-17, N-(3-{(4S)-1-[(1S)-2-(benzylamino)-1-methylethyl]-3-[2-(3-fluorophenyl)ethyl]-2-thioxoimidazolidin-4-yl}propyl)guanidine], in data set [1], the “Selectivity for MCH1R compared with neuropeptide Y2” value is “more than 1,000 fold”. Besides, the “Displacement of [125I] MCH binding to rat MCH1R” value in [2] is on record as “completely displaced”. In addition, the IC50 in data set [2] (mean ±S.E.M., 0.1 nM radioligand, read-out: IC50 for displacement of [125I] MCH binding) was 140 ± 34.6 nM; in data set [5] (1 nM MCH, HEK 293T cells expressing rat MCH1R) it was 6.1 nM. Also, in [3], the “Affinity to / antagonism of human MCH2R” value is “no affinity; also recorded: not appreciably antagonize”. Besides, in data set [3], the “Selectivity for MCH1R compared with human MCH2R” value is on record as “more than 1,000 fold”. The “30 minute water intake following 1 hour food/water deprivation, TPI treated versus control” value in [4] is given as “not significantly different”; in data set [4] (listed as TPI), “non-significant decrease”. Also, the entries for the “30 minute food intake following 1 hour food/water deprivation, TPI treated versus control” value in data set [4] and in data set [4] (listed as TPI) were “significantly greater” and “significant decrease”, respectively. Moreover, the “Slope of Schild regression” value in data set [5] (r2=0.975) worked out at 1.085±0.010. Besides, the Kb in data set [5] (read-out: Kb predicted from Schild regression) is 0.37 nM. Besides, in data set [5] (shift of MCH dose response curves), the “pA2 (Schild regression)” value came out at 9.43. Besides, the “Change of basal Ca2+ level by the compound itself” value in data set [5] (without MCH) was “did not change the basal Ca^2+ level”. The “Selectivity for MCH1R compared with kappa opioid receptor” value in data set [6] was “more than 1,000 fold”. In data set [7], the “Selectivity for MCH1R compared with PrRP receptor” value is given as “more than 1,000 fold”. Besides, the “Motor activity versus control (distance traveled, time resting, time ambulatory, ambulatory counts, time stereotypic, stereotypic counts)” value in [8] is “no significant differences”. Also, the “Selectivity for MCH1R compared with orexin 1R” value in data set [9] is “more than 1,000 fold”.
